Reference: PubChem BioAssay (NCI)
Several values for one entry are separate records, joined by “and”; a condition that tells them apart may be missing. Equal values may be shown once.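 Cells were grown in 96-well plates and exposed to each compound for 48 hours at five concentrations; endpoints were interpolated linearly between bracketing concentrations, or set to the highest concentration if not reached. The concentration for 50% growth inhibition is given as GI50. TGI marks complete inhibition of growth.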

How the values were obtained:
Test in all cases: DTP human tumour cell line panel, 48 h
[1] = tested on: 786-0 renal
[2] = tested on: HCT-15 colon
[3] = tested on: LOX IMVI melanoma
[4] = tested on: OVCAR-4 ovarian
[5] = tested on: SF-295 CNS
[6] = tested on: SK-MEL-2 melanoma
[7] = tested on: SK-MEL-28 melanoma
[8] = tested on: SNB-19 CNS
[9] = tested on: TK-10 renal
[10] = tested on: UO-31 renal

## CCCCCN(CCCCC)CC(O)c1cc2c(c3ccccc13)CCCC2 (stereo not given)
[1]
  GI50: 3.75 µM and 6.51 µM
  TGI: 13 µM and 19.1 µM
[2]
  GI50: 5.31 µM and 6.52 µM
  TGI: 20.8 µM and 26.4 µM
[3]
  GI50: 3.71 µM and 4.93 µM
  TGI: 14.8 µM and 28.1 µM
[4]
  GI50: 3.16 µM and 9.19 µM
  TGI: 16 µM and 30.1 µM
[5]
  GI50: 2.38 µM and 6.82 µM
  TGI: 11.4 µM and 29.8 µM
[6]
  GI50: 2.86 µM and 11.5 µM
  TGI: 8.2 µM and 29 µM
[7]
  GI50: 12.1 µM
  TGI: 25.5 µM
[8]
  GI50: 11 µM and 17.9 µM
  TGI: 22.9 µM and 39.4 µM
[9]
  GI50: 10.6 µM and 18.2 µM
  TGI: 22.9 µM and 37.9 µM
[10]
  GI50: 3.79 µM and 6.15 µM
  TGI: 15.6 µM and 22.1 µM

## COc1cc(-c2oc3c(OC)c(O)c(OC)c(O)c3c(=O)c2OC)ccc1O
[1]
  TGI: > 100 µM
[2]
  TGI: > 100 µM
[3]
  TGI: > 100 µM
[4]
  TGI: > 100 µM
[5]
  TGI: > 100 µM
[6]
  TGI: 74.9 µM
[7]
  TGI: > 100 µM
[8]
  TGI: > 100 µM
[9]
  TGI: 98.9 µM
[10]
  TGI: 85.2 µM

## Cc1cccc2c1C(=O)OC2(C)c1cccc2ccccc12 (stereo not given)
[1]
  TGI: > 100 µM
[2]
  TGI: > 100 µM
[3]
  TGI: > 100 µM
[4]
  TGI: 67.4 µM
[5]
  TGI: > 100 µM
[6]
  TGI: > 100 µM
[7]
  TGI: > 100 µM
[8]
  TGI: > 100 µM
[9]
  TGI: 95.2 µM
[10]
  TGI: > 100 µM

## COCCNC(=O)c1ccc(-c2nc3ccc4[nH]ncc4c3c3c2CCCC3)cc1
[1]
  GI50: 2.12 µM
  TGI: 16.2 µM
[2]
  GI50: 2.67 µM
  TGI: > 100 µM
[3]
  GI50: 2.88 µM
  TGI: > 100 µM
[4]
  GI50: 4.59 µM
  TGI: 72.9 µM
[5]
  GI50: 2.7 µM
  TGI: 47.7 µM
[6]
  GI50: 2.16 µM
  TGI: 7.97 µM
[7]
  GI50: 2.49 µM
  TGI: 98.2 µM
[8]
  GI50: 3.79 µM
  TGI: > 100 µM
[9]
  GI50: 1.09 µM
  TGI: > 100 µM
[10]
  GI50: 1.58 µM
  TGI: 5.74 µM

## C[C@@H]1C[C@@]2(O[C@@H]2C)C(=O)O[C@@H]2CCN3CC=C(COC(=O)[C@]1(C)O)[C@H]23
[1]
  TGI: > 100 µM
[2]
  TGI: > 100 µM
[3]
  TGI: > 100 µM
[4]
  TGI: > 100 µM
[5]
  TGI: > 100 µM
[6]
  TGI: > 100 µM
[7]
  TGI: > 100 µM
[8]
  TGI: > 100 µM
[9]
  TGI: > 100 µM
[10]
  TGI: > 100 µM

## C=CC(=O)Nc1cccc(C)c1Nc1ncc2cc(-c3c(Cl)c(OC)cc(OC)c3Cl)ccc2n1
[1]
  GI50: 2.33 µM
  TGI: 10.1 µM
[2]
  GI50: 4.21 µM
  TGI: > 100 µM
[3]
  GI50: 2.33 µM
  TGI: 14.1 µM
[4]
  GI50: 3.47 µM
  TGI: > 100 µM
[5]
  GI50: 3.26 µM
  TGI: > 100 µM
[6]
  GI50: 4.26 µM
  TGI: 28.7 µM
[7]
  GI50: 12.7 µM
  TGI: 55.6 µM
[8]
  GI50: 4.14 µM
  TGI: 47.1 µM
[9]
  GI50: 3.25 µM
  TGI: 22.1 µM
[10]
  GI50: 3.66 µM
  TGI: 61.5 µM

## COc1cc([C@@H]2OC(=O)C3C2C(=O)O[C@H]3c2cc(OC)c(OC)c(OC)c2)cc(OC)c1OC (stereo not given in full)
[1]
  TGI: > 100 µM
[2]
  TGI: > 100 µM
[3]
  TGI: > 100 µM
[4]
  TGI: > 100 µM
[5]
  TGI: > 100 µM
[6]
  TGI: > 100 µM
[7]
  TGI: > 100 µM
[8]
  TGI: > 100 µM
[9]
  TGI: > 100 µM
[10]
  TGI: > 100 µM

## COC1=CC(=O)[C@]2(C)[C@H](C1=O)C(C)[C@H]2c1ccccc1 (stereo not given in full)
[1]
  TGI: > 100 µM
[2]
  TGI: > 100 µM
[3]
  TGI: > 100 µM
[4]
  TGI: > 100 µM
[5]
  TGI: > 100 µM
[6]
  TGI: > 100 µM
[7]
  TGI: > 100 µM
[8]
  TGI: > 100 µM
[9]
  TGI: > 100 µM
[10]
  TGI: > 100 µM

## O=P1(O)c2ccccc2Nc2cc(C(F)(F)F)ccc21
[1]
  TGI: > 100 µM
[2]
  TGI: > 100 µM
[3]
  TGI: > 100 µM
[4]
  TGI: > 100 µM
[5]
  TGI: > 100 µM
[6]
  TGI: > 100 µM
[7]
  TGI: > 100 µM
[8]
  TGI: > 100 µM
[9]
  TGI: > 100 µM
[10]
  TGI: > 100 µM

## CC1/C(=N/Nc2ccc([N+](=O)[O-])cc2)CC2C3(C)CCC2(C(C)C(=O)O)C(=O)C13 (stereo not given)
[1]
  GI50: 11.3 µM
  TGI: > 100 µM
[2]
  GI50: 4.22 µM
  TGI: > 100 µM
[3]
  GI50: 75.3 µM
  TGI: > 100 µM
[4]
  GI50: > 100 µM
  TGI: > 100 µM
[5]
  GI50: 4.74 µM
  TGI: > 100 µM
[6]
  GI50: 8.75 µM
  TGI: > 100 µM
[7]
  GI50: > 100 µM
  TGI: > 100 µM
[8]
  GI50: > 100 µM
  TGI: > 100 µM
[9]
  GI50: 9.98 µM
  TGI: > 100 µM
[10]
  GI50: 4.31 µM
  TGI: > 100 µM

## Clc1ccc2c(c1)-c1ccccc1C1=NCCN12
[1]
  GI50: 1.66 µM
  TGI: 3.52 µM
[2]
  GI50: 2.71 µM
  TGI: 9.62 µM
[3]
  GI50: 1.59 µM
  TGI: 3.65 µM
[4]
  GI50: 1.99 µM
  TGI: 7.35 µM
[5]
  GI50: 2.12 µM
  TGI: 6.34 µM
[6]
  GI50: 2.02 µM
  TGI: 3.89 µM
[7]
  GI50: 1.74 µM
  TGI: 3.54 µM
[8]
  GI50: 2.5 µM
  TGI: 9.32 µM
[9]
  GI50: 1.87 µM
  TGI: 5.51 µM
[10]
  GI50: 1.28 µM
  TGI: 2.8 µM

## NCCCCN(Cc1nc2ccccc2[nH]1)[C@H]1CCCc2cccnc21
[1]
  GI50: 21.2 µM
  TGI: > 77.1 µM
[2]
  GI50: 24.3 µM
  TGI: > 100 µM
[3]
  GI50: 12 µM
  TGI: 38.2 µM
[4]
  GI50: 10.6 µM
  TGI: > 82.7 µM
[5]
  GI50: 12.8 µM
  TGI: 30.7 µM
[6]
  GI50: 16.7 µM
  TGI: 45.1 µM
[7]
  GI50: 14.9 µM
  TGI: 34.8 µM
[8]
  GI50: 26.9 µM
  TGI: > 100 µM
[9]
  GI50: 25.3 µM
  TGI: > 75.3 µM
[10]
  GI50: 12 µM
  TGI: > 72.7 µM

## CC1=NN(C(=O)c2ccc(Cl)cc2)C(=O)/C1=C/c1ccc(O)cc1
[1]
  TGI: > 100 µM
[2]
  TGI: > 100 µM
[3]
  TGI: > 100 µM
[4]
  TGI: > 100 µM
[5]
  TGI: > 100 µM
[6]
  TGI: > 100 µM
[7]
  TGI: > 100 µM
[8]
  TGI: > 100 µM
[9]
  TGI: > 100 µM
[10]
  TGI: > 100 µM

## CS(=O)(=O)Nc1cc(-c2ccc3ncnc(Nc4ccc5c(cnn5Cc5ccccc5F)c4)c3c2)cnc1Cl
[1]
  GI50: 1.84 µM
  TGI: > 100 µM
[2]
  GI50: 3.28 µM
  TGI: 55 µM
[3]
  GI50: 1.69 µM
  TGI: 4.71 µM
[4]
  GI50: 3 µM
  TGI: > 100 µM
[5]
  GI50: 1.96 µM
  TGI: 8.51 µM
[6]
  GI50: 1.52 µM
  TGI: 4.65 µM
[7]
  GI50: 0.771 µM
  TGI: 6.59 µM
[8]
  GI50: 1.77 µM
  TGI: > 55.5 µM
[9]
  GI50: 1.28 µM
  TGI: 5.44 µM
[10]
  GI50: 3.23 µM
  TGI: > 100 µM
